Measured values from ChEMBL document CHEMBL1201862, “PubChem BioAssay data set” (2004).
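Five concentrations, 48 hours, 96-well plates. GI50 is the concentration that inhibits growth by half.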 Activity calls are given as the source filed them. Rule as the data show it: active = GI50 up to about 1.1 µM and inactive = higher.

Legend:
Assay in all cases: NCI tumour cell line growth inhibition, 48 h
[1] = system: UACC-257
[2] = system: MCF7
[3] = system: PC-3
[4] = system: SNB-19
[5] = system: EKVX
[6] = system: MOLT-4
[7] = system: UACC-62
[8] = system: MDA-MB-435
[9] = system: A498
[10] = system: UO-31
[11] = system: SK-MEL-5
[12] = system: Hs-578T
[13] = system: M14
[14] = system: SR
[15] = system: MDA-MB-231
[16] = system: CAKI-1
[17] = system: HCC 2998
[18] = system: COLO 205
[19] = system: Malme-3M
[20] = system: OVCAR-3
[21] = system: ACHN
[22] = system: HT-29
[23] = system: RPMI-8226
[24] = system: MDA-N
[25] = system: SNB-75
[26] = system: NCI-H522
[27] = system: U-251
[28] = system: OVCAR-5
[29] = system: SK-MEL-2
[30] = system: T47D
[31] = system: BT-549
[32] = system: SK-OV-3
[33] = system: SF-539
[34] = system: SF-295
[35] = system: TK-10
[36] = system: A549
[37] = system: OVCAR-4
[38] = system: SF-268
[39] = system: NCI-H23
[40] = system: HCT-116
[41] = system: DU-145
[42] = system: NCI-H460
[43] = system: 786-0
[44] = system: NCI/ADR-RES
[45] = system: LOX IMVI
[46] = system: SW-620
[47] = system: HOP-62
[48] = system: K562
[49] = system: SN12C
[50] = system: HCT-15
[51] = system: KM12
[52] = system: NCI-H226
[53] = system: IGROV-1
[54] = system: OVCAR-8
[55] = system: SK-MEL-28
[56] = system: HOP-92
[57] = system: CCRF-CEM
[58] = system: HL-60

Cc1oc2c(c1C)S(=O)(=O)C(C#N)=CN2
GI50 [1]: > 100 µM (inactive) | GI50 [2]: > 100 µM (inactive) | GI50 [3]: > 100 µM (inactive) | GI50 [4]: > 100 µM (inactive) | GI50 [5]: > 100 µM (inactive) | GI50 [6]: > 100 µM (inactive) | GI50 [7]: > 100 µM (inactive) | GI50 [8]: > 100 µM (inactive) | GI50 [9]: > 100 µM (inactive) | GI50 [10]: > 100 µM (inactive) | GI50 [11]: > 100 µM (inactive) | GI50 [12]: > 100 µM (inactive) | GI50 [13]: > 100 µM (inactive) | GI50 [14]: > 100 µM (inactive) | GI50 [15]: > 100 µM (inactive) | GI50 [16]: > 100 µM (inactive) | GI50 [17]: > 100 µM (inactive) | GI50 [18]: > 100 µM (inactive) | GI50 [19]: 42.2 µM (inactive) | GI50 [20]: > 100 µM (inactive) | GI50 [21]: > 100 µM (inactive) | GI50 [22]: > 100 µM (inactive) | GI50 [23]: > 100 µM (inactive) | GI50 [24]: > 100 µM (inactive) | GI50 [25]: 65.3 µM (inactive) | GI50 [26]: > 100 µM (inactive) | GI50 [27]: > 100 µM (inactive) | GI50 [28]: > 100 µM (inactive) | GI50 [29]: > 100 µM (inactive) | GI50 [30]: > 100 µM (inactive) | GI50 [31]: > 100 µM (inactive) | GI50 [32]: > 100 µM (inactive) | GI50 [33]: > 100 µM (inactive) | GI50 [34]: > 100 µM (inactive) | GI50 [35]: > 100 µM (inactive) | GI50 [36]: > 100 µM (inactive) | GI50 [37]: > 100 µM (inactive) | GI50 [38]: > 100 µM (inactive) | GI50 [39]: > 100 µM (inactive) | GI50 [40]: > 100 µM (inactive) | GI50 [41]: > 100 µM (inactive) | GI50 [42]: > 100 µM (inactive) | GI50 [43]: > 100 µM (inactive) | GI50 [44]: > 100 µM (inactive) | GI50 [45]: > 100 µM (inactive) | GI50 [46]: > 100 µM (inactive) | GI50 [47]: > 100 µM (inactive) | GI50 [48]: > 100 µM (inactive) | GI50 [49]: > 100 µM (inactive) | GI50 [50]: > 100 µM | GI50 [51]: > 100 µM (inactive) | GI50 [52]: > 100 µM (inactive) | GI50 [53]: > 100 µM (inactive) | GI50 [54]: > 100 µM (inactive) | GI50 [55]: > 100 µM (inactive) | GI50 [56]: > 100 µM (inactive)

CC1(C)C(=O)N=C(N)N1C(=O)OCc1ccccc1
GI50 [1]: > 100 µM (inactive) | GI50 [2]: > 100 µM (inactive) | GI50 [3]: > 100 µM (inactive) | GI50 [4]: > 100 µM (inactive) | GI50 [5]: > 100 µM (inactive) | GI50 [6]: > 100 µM (inactive) | GI50 [7]: > 100 µM (inactive) | GI50 [8]: > 100 µM (inactive) | GI50 [9]: > 100 µM (inactive) | GI50 [10]: 67.6 µM (inactive) | GI50 [11]: > 100 µM (inactive) | GI50 [12]: > 100 µM (inactive) | GI50 [13]: > 100 µM (inactive) | GI50 [14]: > 100 µM (inactive) | GI50 [15]: > 100 µM (inactive) | GI50 [16]: > 100 µM (inactive) | GI50 [17]: > 100 µM (inactive) | GI50 [18]: > 100 µM (inactive) | GI50 [19]: > 100 µM (inactive) | GI50 [20]: > 100 µM (inactive) | GI50 [21]: > 100 µM (inactive) | GI50 [57]: > 100 µM (inactive) | GI50 [22]: > 100 µM (inactive) | GI50 [23]: > 100 µM (inactive) | GI50 [24]: > 100 µM (inactive) | GI50 [25]: > 100 µM (inactive) | GI50 [26]: > 100 µM (inactive) | GI50 [27]: > 100 µM (inactive) | GI50 [28]: > 100 µM (inactive) | GI50 [29]: > 100 µM (inactive) | GI50 [30]: > 100 µM (inactive) | GI50 [31]: > 100 µM (inactive) | GI50 [32]: > 100 µM (inactive) | GI50 [33]: > 100 µM (inactive) | GI50 [34]: > 100 µM (inactive) | GI50 [35]: > 100 µM (inactive) | GI50 [36]: > 100 µM (inactive) | GI50 [37]: > 100 µM (inactive) | GI50 [38]: > 100 µM (inactive) | GI50 [39]: > 100 µM (inactive) | GI50 [40]: > 100 µM (inactive) | GI50 [41]: > 100 µM (inactive) | GI50 [42]: > 100 µM (inactive) | GI50 [43]: > 100 µM (inactive) | GI50 [44]: > 100 µM (inactive) | GI50 [45]: > 100 µM (inactive) | GI50 [46]: > 100 µM (inactive) | GI50 [47]: > 100 µM (inactive) | GI50 [48]: > 100 µM (inactive) | GI50 [49]: > 100 µM (inactive) | GI50 [58]: > 100 µM (inactive) | GI50 [50]: > 100 µM | GI50 [51]: > 100 µM (inactive) | GI50 [52]: > 100 µM (inactive) | GI50 [53]: > 100 µM (inactive) | GI50 [54]: > 100 µM (inactive) | GI50 [55]: > 100 µM (inactive) | GI50 [56]: > 100 µM (inactive)
